Paper PMC7177456, “A Peptidomimetic Fluorescent Probe to Detect the Trypsin β2 Subunit of the Human 20S Proteasome” (International Journal of Molecular Sciences, 2020)
Read-outs that look alike come from different tables or passages of the source. Non-standard residues stand in square brackets, D forms with d. *: point of attachment. ACC = NC(=O)Cc1cc(=O)oc2cc(N*)ccc12; AMC = Cc1cc(=O)oc2cc(N*)ccc12; hSer = N[C@@H](CCO)C(=O)O; Boc = CC(C)(C)OC(=O)*

Legend:
[1] = system: chymotrypsin subunit (β5) of the 20S proteasome in human urine; experiment: Proteasome activity in human urine with the β5 substrate; type: biochemical
Procedure: All urine samples were purchased from St. Vincent de Paul Hospital in Gdynia, Poland (contract no. JN/777/R720/08.11.17). All methods and procedures were performed in accordance with this contract agreement. Participants were informed about the study and sample collection, and their written consent was collected. […] Therefore, the samples were considered unnamed. The samples of human urine were taken during mid-urination and kept for 48 h at −80 °C until required. All samples used for assay development were taken from healthy volunteers (n = 5), and oncological samples were obtained from patients diagnosed with bladder cancer (n = 8).
In parallel, the urine samples were analyzed using the previously developed substrate ABZ–Val–Val–Ser–Tyr–Ala–Met–Gly–Tyr(3-NO2)–NH2 [21] in two systems: one with the artificial activator SDS at 0.01% and the second without any SDS. The fluorescence of the system was recorded over time. The same conditions for excitation and emission were used as above. All measurements were performed in triplicate.
The resulting data were analyzed using Graphpad Prism version 6.0 software (GraphPad Software Inc., La Jolla, CA, USA). All fluorescent measurements were performed in triplicate and represented by the mean ± standard deviation (SD). A two-tailed Mann–Whitney test was applied for the statistical analysis (p < 0.0001).

[2] = target: T1, human 20S proteasome, trypsin-like (β2) subunit (Homo sapiens, UniProt P49720+Q99436); experiment: Kinetic parameters of substrate 1 with human 20S proteasome (allosteric fit); type: biochemical; conditions: SDS 0.01%, substrate 1
T1 construct: purchased Boston Biochem (Cambridge, MA, USA)
Procedure: For enzymatic studies, the human 20S proteasome, 26S proteasome, and 20S immunoproteasome were purchased from Boston Biochem (Cambridge, MA, USA). The 20S proteasome concentration for library deconvolution was in the nanomolar range, and this proteasome entity was used for the main study. Deconvolution of the peptide libraries was performed using the iterative solution method. Dimethyl sulfoxide (DMSO) was used as a solvent for preparation of the stock solution (5 mg/mL) for each lyophilized sub-library. This stock solution was diluted ten times using an assay buffer (50 mM Tris/HCl buffer (pH 8.2)) for the 20S and 20Si proteasome, and for 26S, the buffer was supplemented with 40 mM KCl, 2 mM EDTA, 1 mM DTT, 100 µM ATP, and 50 µg/mL bovine serum albumin (BSA). The volume composition of each well of the 96-well plate was: 20 µL library, 160 µL assay buffer, and 20 µL 20S proteasome solution at a concentration of 1.07 × 10^−9 M. Absorbance or fluorescence measurements were performed on a FluoroStar OMEGA multimode microplate reader (BMG, Ortenberg, Germany). Absorbance increases were monitored at 410 nm. The excitation and emission wavelengths were 320 and 450 nm respectively, for the ABZ/ANB. Enzymatic hydrolysis of the peptide was performed in the assay buffer at 37 °C and continued over 60 min.
The procedures to determine the kinetic constants Km and kcat are described below. Increasing concentrations of substrate 1 ranged from 1 × 10^−6 to 2 × 10^−5 M. In parallel, a kinetic assay with the artificial activator SDS at 0.01% was also performed. The data were fitted to an allosteric plot using GraphPad prism v6.0 (GraphPad Software Inc., La Jolla, CA, USA). The specificity constants (kcat/ Km) were calculated from the kcat and Km values. Measurements were performed using a 20S proteasome concentration of 1.07 × 10^−9 M. Three to five measurements were performed for each compound dilution (the systematic error, defined as the standard deviation, never surpassed 20%). The initial hydrolysis rates were used as the amount of enzymatic activity for the tested compounds. All kinetic study details and kinetic parameters have been described elsewhere.

[3] = system: neutrophil-related proteases / neutrophil serine protease 4 (NSP4); conditions: ref [19], cited from earlier work
From the text: Recently, we established a new method for the selection and synthesis of artificial fluorogenic substrates composed of DAPEG residues (Figure 1). For the screening of 18 libraries, we created a series of compounds based on the neutrophil serine protease 4 (NSP4) substrate sequence (ABZ–X4–X3–X2–Arg–ANB–NH2) diversified in positions X4 to X2 with DAPEG, resulting in a total of almost 6000 compounds.

[4] = system: trypsin-like subunit of the 20S proteasome; conditions: cited from earlier work; for selectivity for the trypsin subunit / selectivity for trypsin-like specificity: introduction; for selectivity for trypsin-like specificity: commercially available substrates, no reference given
From the text: Table 1 Overview of the fluorogenic substrates of the trypsin-like subunit of the 20S proteasome. | column: Km (µM); kcat (s^−1); kcat/Km (M^−1 s^−1) || The aim of this work is to develop a new substrate to assay the trypsin-like specificity of the human 20S proteasome that is created by DAPEG building blocks, which are N-substituted functionalized derivates of 3-diaminopropionic acid (Figure 1). The substrate preferences of the β2 subunit have been previously examined. Harris and coworkers described the development of new substrates selected via combinatorial library screening. The substrate peptides were labeled with 7-amino-4-carbamoylmethylcoumarin (ACC) as a reporter moiety, and a specific sequence of the β2 subunit, Ac–Glu– ...

20S proteasome = experiment: Inhibitory studies: cleavage of substrate 1 in the presence of selective proteasome inhibitors; type: biochemical, human; conditions: 30 min preincubation at 37 °C, 20S 1.07 × 10^−9 M, substrate 1.34 × 10^−5 M, triplicate
From the text: A black, 96-well flat-bottomed microplate (Brand GMBH, Wertheim, Germany) was used for the inhibitory studies. Two inhibitors, carfilzomib (a selective inhibitor of the β5 subunit of the 20S proteasome) and epoxomicin, were purchased from Merck (Darmstadt, Germany) and used at final concentrations of 1.15 × 10^−6 M and 5.0 × 10^−5 M, respectively. The β2 inhibitor, PR671A [20], and the β1 inhibitor, NCOO1 [21], were used at a concentration of 5 × 10^−6 M. These reagents were kindly provided by Alexei Kisselev from Dartmouth University (Dartmouth, NH, USA). The concentration of 20S proteasome was 1.07 × 10^−9 M. The buffered proteasome solution was mixed with 10 µL inhibitor solution. This mixture was incubated for 30 min at 37 °C. After this period, the substrate solution was added at a concentration of 1.34 × 10^−5 M, and the fluorescence was measured over time at 320 nm excitation and 450 nm emission wavelengths. All measurements were performed in triplicate.

Compound: ABZ–Val–Val–Ser–Tyr–Ala–Met–Gly–Tyr(3-NO2)–NH2 [previously developed substrate]
- fluorescence increase, healthy samples ([1]; healthy urine, all systems (with and without SDS), n = 5): no visible fluorescence increase
- bladder cancer samples with fluorescence increase ([1]; with SDS 0.01%, 8 bladder cancer samples, triplicate): seven systems (1–5, 7, and 8)
- fluorescence increase rate, sample N° 6 ([1]; with SDS 0.01%, bladder cancer sample N° 6): insignificant
- bladder cancer samples with visible fluorescence increase ([1]; without SDS, 8 bladder cancer samples, 320/450 nm, triplicate): 2 out of the 8

Compound: CCCCCCCCCCCCOS(=O)(=O)[O-].[Na+] [SDS, sodium dodecyl sulfate]
- effect on β2 subunit activity of the 20S proteasome [2]: not significantly altered

Compound: ABZ–Dap(O2(Cbz))–Dap(Cbz)–Dap(GO1)–Arg–ANB–NH2
- specificity constant (kcat/Km) ([3]; NSP4 substrate-based library): 130000 M⁻¹ s⁻¹
- selectivity towards neutrophil-related proteases [3]: high levels of selectivity

Compound: Ac–βAla–Met(O)2–Thr–Arg–ACC
- selectivity for the trypsin subunit ([4]; ref [18]): most selective
- Km ([4]; ref [18]): 50.9 ± 2.99 µM
- kcat ([4]; ref [18]): 2.23 ± 0.07 s⁻¹
- kcat/Km ([4]; ref [18]): 43,790 ± 3233 M^−1 s^−1
- kcat/Km ([4]; ref [18], listed as Ac–βAla–Met(O2)–Thr–Arg–ACC): 43,790 M^−1 s^−1

Compound: Boc-Leu-Arg-Arg-{AMC} [commercially available 20S proteasome substrate]
- selectivity for trypsin-like specificity [4]: significant selectivity
- kcat/Km ([4]; ref [22]): <500 M⁻¹ s⁻¹

Compound: CC(C)C[C@H](NC(=O)[C@H](CCc1ccccc1)NC(=O)CN1CCOCC1)C(=O)N[C@@H](Cc1ccccc1)C(=O)N[C@@H](CC(C)C)C(=O)[C@@]1(C)CO1 [carfilzomib]
- effect on cleavage of substrate 1 (20S proteasome; carfilzomib (β5) 1.15 × 10^−6 M): a slight activation of the cleavage rate

Compound: Ac-Leu-Arg-Arg-{AMC} [commercially available 20S proteasome substrate]
- selectivity for trypsin-like specificity [4]: significant selectivity

Compound: CC[C@H](C)[C@H](NC(=O)[C@H]([C@@H](C)CC)N(C)C(C)=O)C(=O)N[C@H](C(=O)N[C@@H](CC(C)C)C(=O)[C@@]1(C)CO1)[C@@H](C)O [epoxomicin]
- effect on cleavage of substrate 1 (20S proteasome; epoxomicin (general inhibitor) 5.0 × 10^−5 M): proteolytic suppression of substrate 1

Compound: ABZ–Val–Val–Ser–GNF–Ala–Met–Gly–Tyr(3-NO2)–NH2
- Km ([4]; ref [21]): 4.24 ± 0.87 µM
- kcat ([4]; ref [21]): 8.41 ± 0.57 s⁻¹
- kcat/Km ([4]; ref [21]): 1,983,100 ± 2754 M^−1 s^−1

Compound: Ac-[dR][hSer]TR-{ACC}
- selectivity for the trypsin subunit ([4]; ref [18]): moderate selectivity at higher proteasome concentrations
- Km ([4]; ref [18]): 9.43 ± 0.82 µM
- kcat ([4]; ref [18]): 2.84 ± 0.22 s⁻¹
- kcat/Km ([4]; ref [18]): 301,005 ± 28,471 M^−1 s^−1
- kcat/Km ([4]; ref [18], listed as Ac–DArg–Hse–Thr–Arg–ACC): 301,005 M^−1 s^−1
